The test system of the test is 186277-243-T-J2-PDC complex spheroid viability. The experiment in a line: Anticancer human tumor 186277-243-T-J2-PDC patient-derived colon adenocarcinoma cell line growth inhibition. The conditions noted are these: for viability, T/C: stronger effect = lower value. The essentials: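 Drug combinations with the LSD1 inhibitor iadademstat tested on tumor cells co-cultured as spheroids with endothelial cells and mesenchymal stem cells. Concentrations descended in half-log increments from clinical Cmax or 10 microM.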

[1] abbreviates: curve of first compound, second compound 0.1 µM.
[2] abbreviates: curve of first compound, second compound 0.316 µM.
Setting [3] is: curve of first compound, second compound 1 µM.
Where [4] appears, read: curve of first compound, second compound 3.16 µM.
Setting [5] is: curve of first compound, second compound 10 µM.
[6] abbreviates: second compound 0.1 µM, first compound 0.0316 µM.
The mark [7] stands for this setting: second compound 0.1 µM, first compound 0.1 µM.
[8] abbreviates: second compound 0.1 µM, first compound 0.316 µM.
The mark [9] stands for this setting: second compound 0.1 µM, first compound 1 µM.
Setting [10] is: second compound 0.316 µM, first compound 0.0316 µM.
[11] abbreviates: second compound 0.316 µM, first compound 0.1 µM.
Where [12] appears, read: second compound 0.316 µM, first compound 0.316 µM.
[13] abbreviates: second compound 0.316 µM, first compound 1 µM.
The mark [14] stands for this setting: second compound 1 µM, first compound 0.0316 µM.
Setting [15] is: second compound 1 µM, first compound 0.1 µM.
[16] abbreviates: second compound 1 µM, first compound 0.316 µM.
Where [17] appears, read: second compound 1 µM, first compound 1 µM.
Where [18] appears, read: second compound 3.16 µM, first compound 0.0316 µM.
Setting [19] is: second compound 3.16 µM, first compound 0.1 µM.
[20] abbreviates: second compound 3.16 µM, first compound 0.316 µM.
[21] abbreviates: second compound 3.16 µM, first compound 1 µM.
Setting [22] is: second compound 10 µM, first compound 0.0316 µM.
The mark [23] stands for this setting: second compound 10 µM, first compound 0.1 µM.
The mark [24] stands for this setting: second compound 10 µM, first compound 0.316 µM.
Setting [25] is: second compound 10 µM, first compound 1 µM.

Where “and” joins values, the source holds several entries; their conditions need not be identical. Equal entries are not always repeated. Where only a bound is given, the exact number is not on record here.

One may read the viability, T/C as the ratio of treated to control. Broadly, the IC50 is the concentration that inhibits the measured activity by half.
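Further: 7 day exposure to compounds.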
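Wherever viability, T/C is given: 100% = DMSO vehicle control viability.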

On to `O=C(C=Cc1cccc(S(=O)(=O)Nc2ccccc2)c1)NO`, for which the viability, T/C was 102% and 94.1% (compound 0.00949 µM); 100% and 96.4% (compound 0.03 µM); 84.3% and 80.5% (compound 0.0949 µM); 36.6% and 22.1% (compound 0.3 µM); 15.3% and 3.68% (compound 0.949 µM). In addition, the half-maximal inhibitory concentration (IC50) (curve of compound) is 223 nM and 234 nM.

`O=C(C=Cn1cnc(-c2cc(C(F)(F)F)cc(C(F)(F)F)c2)n1)NNc1cnccn1` + NC1CCC(NC2CC2c2ccccc2)CC1: the concentration for half-maximal inhibition (IC50) reads like this: under setting [1], 16.6 nM; under setting [2], 18.6 nM; under setting [3], 17 nM; under setting [4], 18.2 nM; under setting [5], 16.8 nM. For the same compound, the viability, T/C is 98.7% (second compound 0.1 µM, first compound 0.00316 µM); 73.7% (second compound 0.1 µM, first compound 0.01 µM); 19.7% under setting [6]; 5.58% under setting [7]; 3.09% under setting [8]; 0.76% under setting [9]. Moreover, the viability, T/C is 98.9% (second compound 0.316 µM, first compound 0.00316 µM); 83.6% (second compound 0.316 µM, first compound 0.01 µM); 20.9% under setting [10]; 10.7% under setting [11]; 3.03% under setting [12]; 2.56% under setting [13]. The viability, T/C by setting is: (second compound 1 µM, first compound 0.00316 µM) 91.4%; (second compound 1 µM, first compound 0.01 µM) 76.3%; under setting [14], 19.3%; under setting [15], 7.63%; under setting [16], 3.96%; under setting [17], 0.59%. In addition, the viability, T/C is, setting by setting: (second compound 3.16 µM, first compound 0.00316 µM) 121%; (second compound 3.16 µM, first compound 0.01 µM) 83.3%; under setting [18], 19.2%; under setting [19], 5.56%; under setting [20], 5.32%; under setting [21], 0.63%. For the same compound, the viability, T/C runs as follows: (second compound 10 µM, first compound 0.00316 µM) 131%; (second compound 10 µM, first compound 0.01 µM) 76.8%; under setting [22], 17.3%; under setting [23], 4.86%; under setting [24], 3.33%; under setting [25], 0.57%.

Take `NC1CCC(NC2CC2c2ccccc2)CC1` (centres undefined): under “compound 0.316 µM”, the viability, T/C was 104% and 114%. Besides, the IC50 (compound alone, run of 01/18/2022) is above 10000 nM.

`CCN(c1cc(-c2ccc(CN3CCOCC3)cc2)cc(C(=O)NCc2c(C)cc(C)[nH]c2=O)c1C)C1CCOCC1`: the viability, T/C was 106% and 93.9% (compound 0.00949 µM); 99.2% and 112% (compound 0.03 µM); 108% and 96.8% (compound 0.0949 µM); 99.2% and 104% (compound 0.3 µM); 99.2% and 108% (compound 0.949 µM); 101% and 30.2% (compound 3 µM). Besides, where the note is “curve of compound”, the IC50 is > 3000 nM and 2200 nM.

As for `COc1ccc([C@@H](O)c2cc(-c3ncnc4cc(N5CCOCC5)ccc34)c(F)cc2Cl)nn1` + NC1CCC(NC2CC2c2ccccc2)CC1, the half-maximal inhibitory concentration (IC50) was 4320 nM under setting [1]; 4430 nM under setting [2]; 4480 nM under setting [3]; 4300 nM under setting [4]; 3860 nM under setting [5]. In addition, the viability, T/C under setting [6] is 112%; the viability, T/C under setting [7] was 119%; the viability, T/C under setting [8] was 112%; the viability, T/C under setting [9] is 93.2%; the viability, T/C (second compound 0.1 µM, first compound 3.16 µM) was 67.3%; the viability, T/C (second compound 0.1 µM, first compound 10 µM) is 7%. The viability, T/C under setting [10] was 128%; the viability, T/C under setting [11] was 143%; the viability, T/C under setting [12] was 105%; the viability, T/C under setting [13] was 100%; the viability, T/C (second compound 0.316 µM, first compound 3.16 µM) was 72.7%; the viability, T/C (second compound 0.316 µM, first compound 10 µM) is 5.45%. Also, the viability, T/C reads like this: under setting [14], 116%; under setting [15], 118%; under setting [16], 108%; under setting [17], 109%; (second compound 1 µM, first compound 3.16 µM) 68.7%; (second compound 1 µM, first compound 10 µM) 6.38%. For the same compound, the viability, T/C reads like this: under setting [18], 122%; under setting [19], 126%; under setting [20], 122%; under setting [21], 97.9%; (second compound 3.16 µM, first compound 3.16 µM) 67.5%; (second compound 3.16 µM, first compound 10 µM) 5.71%. For the same compound, the viability, T/C by setting is: under setting [22], 109%; under setting [23], 118%; under setting [24], 104%; under setting [25], 101%; (second compound 10 µM, first compound 3.16 µM) 59%; (second compound 10 µM, first compound 10 µM) 5.79%.

For `O=C(c1cc(Cc2n[nH]c(=O)c3ccccc23)ccc1F)N1CCN(C(=O)C2CC2)CC1`, the viability, T/C reads like this: (compound 0.0316 µM) 100% and 90.9%; (compound 0.1 µM) 102% and 106%; (compound 0.316 µM) 105% and 103%; (compound 1 µM) 93.5% and 95.7%; (compound 3.16 µM) 69.7% and 113%; (compound 10 µM) 54.8% and 86.6%. Also, the IC50 (curve of compound) is above 10000 nM.

With `CCc1c2c(nc3ccc(O)cc13)-c1cc3c(c(=O)n1C2)COC(=O)[C@]3(O)CC` + NC1CCC(NC2CC2c2ccccc2)CC1, the concentration for half-maximal inhibition (IC50) is, setting by setting: under setting [1], 2.11 nM; under setting [2], 2.07 nM; under setting [3], 2.69 nM; under setting [4], 3.63 nM; under setting [5], 2.87 nM. Moreover, the viability, T/C runs as follows: (second compound 0.1 µM, first compound 0.000949 µM) 63%; (second compound 0.1 µM, first compound 0.003 µM) 40.7%; (second compound 0.1 µM, first compound 0.00949 µM) 33.6%; (second compound 0.1 µM, first compound 0.03 µM) 17.5%; (second compound 0.1 µM, first compound 0.0949 µM) 1.51%; (second compound 0.1 µM, first compound 0.3 µM) 0.43%. For the same compound, the viability, T/C was 62.7% (second compound 0.316 µM, first compound 0.000949 µM); 42.2% (second compound 0.316 µM, first compound 0.003 µM); 30.1% (second compound 0.316 µM, first compound 0.00949 µM); 19.3% (second compound 0.316 µM, first compound 0.03 µM); 1.53% (second compound 0.316 µM, first compound 0.0949 µM); 0.53% (second compound 0.316 µM, first compound 0.3 µM). For the same compound, the viability, T/C runs as follows: (second compound 1 µM, first compound 0.000949 µM) 65.7%; (second compound 1 µM, first compound 0.003 µM) 43.1%; (second compound 1 µM, first compound 0.00949 µM) 38.1%; (second compound 1 µM, first compound 0.03 µM) 20.4%; (second compound 1 µM, first compound 0.0949 µM) 1.56%; (second compound 1 µM, first compound 0.3 µM) 0.4%. Also, the viability, T/C reads like this: (second compound 3.16 µM, first compound 0.000949 µM) 71.2%; (second compound 3.16 µM, first compound 0.003 µM) 49.2%; (second compound 3.16 µM, first compound 0.00949 µM) 38.2%; (second compound 3.16 µM, first compound 0.03 µM) 20.8%; (second compound 3.16 µM, first compound 0.0949 µM) 1.23%; (second compound 3.16 µM, first compound 0.3 µM) 0.47%. Also, the viability, T/C is, setting by setting: (second compound 10 µM, first compound 0.000949 µM) 80.1%; (second compound 10 µM, first compound 0.003 µM) 44.5%; (second compound 10 µM, first compound 0.00949 µM) 32.6%; (second compound 10 µM, first compound 0.03 µM) 15.5%; (second compound 10 µM, first compound 0.0949 µM) 1.74%; (second compound 10 µM, first compound 0.3 µM) 1.75%.

`Nc1ncn(C2CC(O)C(CO)O2)c(=O)n1` (centres undefined): the viability, T/C was 93.4% and 108% (compound 0.00316 µM); 102% and 99.4% (compound 0.01 µM); 97.3% and 94.3% (compound 0.0316 µM); 113% and 112% (compound 0.1 µM); 113% and 133% (compound 0.316 µM); 104% and 141% (compound 1 µM). In addition, the IC50 (curve of compound) was above 1000 nM.
